Experiments:
[1] = target: T1, uncoupling protein 1 (UCP1) (Mus musculus, UniProt P12242); assay: whole-IMM patch clamp, WT vs UCP1-/-; assay type: cell-based
T1 sequence (P12242 1-307): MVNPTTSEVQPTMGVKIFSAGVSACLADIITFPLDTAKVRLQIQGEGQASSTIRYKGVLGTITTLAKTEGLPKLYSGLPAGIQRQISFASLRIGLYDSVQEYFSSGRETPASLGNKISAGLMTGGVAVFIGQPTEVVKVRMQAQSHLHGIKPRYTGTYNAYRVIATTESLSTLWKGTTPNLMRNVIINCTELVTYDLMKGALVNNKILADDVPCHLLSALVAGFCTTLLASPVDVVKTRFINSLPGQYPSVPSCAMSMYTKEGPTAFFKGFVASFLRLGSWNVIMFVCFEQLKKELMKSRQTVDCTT

ADP/ATP carrier AAC1 = target: T2, ADP/ATP carrier AAC1 (Mus musculus, UniProt P48962); assay: whole-IMM patch clamp; assay type: cell-based
T2 sequence (P48962 2-298): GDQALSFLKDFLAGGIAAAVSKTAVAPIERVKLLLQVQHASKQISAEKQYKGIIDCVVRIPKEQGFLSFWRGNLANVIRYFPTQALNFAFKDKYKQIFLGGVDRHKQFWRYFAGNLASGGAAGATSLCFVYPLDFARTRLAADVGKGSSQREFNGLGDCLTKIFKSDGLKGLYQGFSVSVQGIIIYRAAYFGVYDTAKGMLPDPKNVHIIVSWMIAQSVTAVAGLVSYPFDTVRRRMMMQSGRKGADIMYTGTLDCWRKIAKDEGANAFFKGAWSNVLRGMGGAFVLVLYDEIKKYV

[2] = target: T1, uncoupling protein 1 (UCP1); assay: whole-IMM patch clamp, dose-dependent inhibition of IH induced by […] DNP; assay type: biochemical

O=[N+]([O-])c1ccc(O)c([N+](=O)[O-])c1 [DNP, 2,4-dinitrophenol]
whole-IMM patch clamp, WT vs UCP1-/-; GDP block; competition with ATP [1]: Thus, UCP1 is crucial for DNP-induced IH in brown fat mitochondria.

N#CC(C#N)=NNc1ccc(OC(F)(F)F)cc1 [FCCP]
whole-IMM patch clamp (25-250 nM), WT vs AAC1-/-; CATR block (ADP/ATP carrier AAC1): DNP and FCCP activate IH through AAC.

Nc1ncnc2c1ncn2[C@@H]1O[C@H](COP(=O)(O)OP(=O)(O)OP(=O)(O)O)[C@@H](O)[C@H]1O [ATP]
IC50 [2]: ~14 µM

Reference: PMC9646675 (Nature, 2022)
